For the test, the target named is Angiotensin-converting enzyme (Homo sapiens, UniProt P12821). As to the kind of experiment: Enzyme Inhibition Assay. The settings on record: pH 6.8; 25 °C. Here is the method:
Continuous assays were performed by recording the fluorescence increase at 405 nm (excitation@ 320 nm) induced by the cleavage of fluorogenic substrate, using 96-well nonbinding surface plates. Fluorescence signals were monitored using a Fluoroscan Ascent photon counter spectrophotometer (Thermo-Labsystems, Courtaboeuf, France) equipped with a temperature control device and a plate shaker. The substrate and enzyme concentrations for the experiments were chosen so as to remain well below 10% of substrate utilization and to observe initial rates. For each inhibitor, percentage inhibition was determined in triplicate experiments at five inhibitor concentrations, chosen to observe a 20-80% range of inhibition. Ki values were determined using the method proposed by Horovitz and Leviski, as described in Proc. Natl. Acad. Sci. U.S.A. 1987, 84, 6654.
Sequence of Angiotensin-converting enzyme (P12821 whole entry): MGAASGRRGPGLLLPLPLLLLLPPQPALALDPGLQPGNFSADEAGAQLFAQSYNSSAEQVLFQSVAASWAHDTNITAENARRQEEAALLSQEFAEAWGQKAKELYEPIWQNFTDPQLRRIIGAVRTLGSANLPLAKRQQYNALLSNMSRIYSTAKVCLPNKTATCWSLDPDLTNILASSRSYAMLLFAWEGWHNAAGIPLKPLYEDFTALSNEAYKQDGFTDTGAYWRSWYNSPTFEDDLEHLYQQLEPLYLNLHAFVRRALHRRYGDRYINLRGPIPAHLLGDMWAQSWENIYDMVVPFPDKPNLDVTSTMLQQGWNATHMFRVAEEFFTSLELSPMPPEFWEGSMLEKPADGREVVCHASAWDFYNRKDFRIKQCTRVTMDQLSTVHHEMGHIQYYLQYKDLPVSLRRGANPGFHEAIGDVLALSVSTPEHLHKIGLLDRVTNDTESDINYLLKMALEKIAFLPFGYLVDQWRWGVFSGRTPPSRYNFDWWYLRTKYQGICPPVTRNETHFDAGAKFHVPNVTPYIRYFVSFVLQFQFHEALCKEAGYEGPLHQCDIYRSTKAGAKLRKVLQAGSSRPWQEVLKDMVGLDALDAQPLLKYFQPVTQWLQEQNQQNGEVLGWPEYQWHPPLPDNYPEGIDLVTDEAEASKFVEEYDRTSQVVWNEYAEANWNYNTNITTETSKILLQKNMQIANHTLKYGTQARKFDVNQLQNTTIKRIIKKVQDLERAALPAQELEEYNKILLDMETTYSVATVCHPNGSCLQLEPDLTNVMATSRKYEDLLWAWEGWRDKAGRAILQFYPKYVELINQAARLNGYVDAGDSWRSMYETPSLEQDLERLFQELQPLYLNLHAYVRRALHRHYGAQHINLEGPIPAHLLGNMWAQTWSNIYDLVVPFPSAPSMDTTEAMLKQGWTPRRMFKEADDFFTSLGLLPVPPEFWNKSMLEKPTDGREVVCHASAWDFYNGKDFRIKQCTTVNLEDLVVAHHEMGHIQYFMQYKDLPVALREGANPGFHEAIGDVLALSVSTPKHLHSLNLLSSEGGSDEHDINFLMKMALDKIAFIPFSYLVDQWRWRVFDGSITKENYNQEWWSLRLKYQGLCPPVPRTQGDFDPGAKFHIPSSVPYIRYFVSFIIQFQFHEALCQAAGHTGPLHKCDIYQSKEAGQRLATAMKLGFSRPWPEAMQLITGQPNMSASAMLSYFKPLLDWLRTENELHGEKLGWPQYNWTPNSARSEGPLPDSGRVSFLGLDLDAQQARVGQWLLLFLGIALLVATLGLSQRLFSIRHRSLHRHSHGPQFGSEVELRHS
The compound `CC(=O)NC(Cc1c[nH]cn1)C(=O)N1CCCC1P(=O)(O)CC(Cc1cc(-c2ccccc2)no1)C(=O)O` (centres undefined) [3-({1-[2-acetamido-3-(1H-imidazol-4-yl)propanoyl]pyrrolidin-2-yl}(hydroxy)phosphoryl)-2-[(3-phenyl-1,2-oxazol-5-yl)methyl]propanoic acid] had an inhibition constant (Ki) above 10 µM.

For `CC(=O)NC(CC(C)C)C(=O)N1CCCC1P(=O)(O)CC(Cc1cc(-c2ccccc2)no1)C(=O)O` (centres undefined) [3-{[1-(2-acetamido-4-methylpentanoyl)pyrrolidin-2-yl](hydroxy)phosphoryl}-2-[(3-phenyl-1,2-oxazol-5-yl)methyl]propanoic acid], the Ki is above 10 µM.

`CC(=O)NC(CC(C)C)C(=O)N1CCCC1P(=O)(O)CC(Cc1ccccc1)C(=O)O` (centres undefined) [The second fraction of the HPLC chromatogram.] yielded a Ki above 10 µM.

Consider `CC(=O)NC(Cc1c[nH]cn1)C(=O)N1CCCC1P(=O)(O)CC(Cc1ccccc1)C(=O)O` (centres undefined) [The second fraction of the HPLC chromatogram.], for which the Ki is above 10 µM.

A word on the Ki: it is the equilibrium dissociation constant of an inhibitor or competing ligand from its target. Read a high Ki as lower affinity.

(Values after BindingDB's records for doi:10.1021/jm701275z (University of Athens, 2008).)
